# Where a name gives a salt, the structure may show the parent alone.
# Key:
# [1] = test system: LPS-induced NO production in mouse microglia (BV2); assay: LPS-induced NO production inhibition test, mouse microglia (BV2); type: cell-based; conditions: BV-2, BV2 cells, 20 ng/ml LPS, 24 hours, Griess reagent
# Method: (§1) Mouse monocytes (RAW) and mouse microglia (BV2) cells were cultured on a 96-well transparent plate (Nunc) in such a way that each of the wells contained 60,000 and 35,000 cells respectively. After 18 hours, when stabilized, the cells were treated with lipopolysaccharide (Sigma, USA, Cat No. L2630) in a morbid state derived from 20 ng/ml of Escherichia coli O111:B4 and 4 different concentrations (50 uM, 12.5 uM, 3.1 uM, and 0.8 uM) of the compounds synthesized according to Examples 1 to 55. Then, the cells were cultured for 24 hours, and a concentration of increased NO was measured. The NO concentration was determined by measuring absorption at a wavelength of 540 nm after a Griess reagent including 0.1% N-(1-naphthyl)ethylenediamine dihydrochloride, 1% sulfanilamide, and 2.5% phosphoric acid were added thereto.
# [2] = test system: neuropathic pain (mechanical allodynia) in rats with caudal nerve damage; assay: Pain relief test using animal model (caudal nerve damage neuropathic pain, mechanical allodynia); type: in vivo; conditions: ip; at 1 hour after intraperitoneal administration; rat, von Frey; reference concentration 30 mg/kg; read-out: Pain test results (% MPE, 50% tail withdrawal threshold)
# Method: Male rats (Sprague-Dawley, 150-200 g, 6-week old, Orient Bio Co., Ltd) were purchased and acclimated in an animal chamber for one week. The animal chamber was alternately turned on and off at a time interval of 12 hours, at a temperature of 22 to 25° C., and in a relative humidity of 40-60%, and water and feed was supplied ad libitum to the rats.
# The rats were placed in a round acryl container (5.5 15, 6.5 18 cm, which varied according to the size of body) and only the tails thereof were taken out of the container and placed on a plate. To confirm a pain behavior corresponding to a mechanical stimulus, an up-down method (J. Neurosci. Methods 53:55-63) was performed using a von Frey filament so as to measure “50% tail withdrawal threshold.
# During all the steps before surgery, anesthesia was maintained with a mixed gas including 2-3% enflurane and 95% oxygen.
# The compounds were each prepared as a solution form by using 5% DMSO, 5% Cremophore, and 90% distilled water on a volumetric basis. Each of the solutions was intraperitoneally administered in a volume of 3 ml per kg of a rat. The concentration of the compounds was controlled according to a compound and the concentration of reference was 30 mg/kg. […]
# Anti-allodynic effects of the compounds were described as mean±SEM, and were compared each other by referring to “% MPE (the percentage of maximum possible effect),” and analyzed using one-way ANOVA and Bonferroni's t-test. […] [% MPE=(the threshold with respect to time after the drug treatment−the threshold at 0 hr)/(15−the threshold at 0 hr)×100]
# [3] = test system: LPS-induced NO production in mouse monocytes (RAW); assay: LPS-induced NO production inhibition test, mouse monocytes (RAW); type: cell-based; conditions: Monocyte, RAW cells, 20 ng/ml LPS, 24 hours, Griess reagent
# Method: as §1
SMILES,IC50 [1],IC50 [3],inhibition in vivo [2]
"O=C(Nc1cc(Cl)nc(Cl)c1)OC1CCC(COC(=O)N2CCCC2)CC1 (stereo not drawn) [Example 24, pyrrolidine-1-carboxylic acid 4-(2,6-dichloro-pyridin-4-ylcarbamoyloxy)-cyclohexylmethyl ester]",> 50 µM,> 50 µM,
O=C(NCc1ccccn1)OC1CCC(COC(=O)N2CCCCC2)CC1 (stereo not drawn) [Example 26],36.8 µM,46.1 µM,
O=C(NCc1ccccn1)OC1CCC(COC(=O)N2CCOCC2)CC1 (stereo not drawn) [Example 27],> 50 µM,50 µM,
"O=C(NCc1ccccn1)OC1CCC(COC(=O)N2CCNCC2)CC1 (stereo not drawn) [Example 28, HCl salt]",44.8 µM,> 50 µM,
"CN1CCN(C(=O)OCC2CCC(OC(=O)NCc3ccccc3)CC2)CC1 (stereo not drawn) [Example 29, 4-methyl-piperazine-1-carboxylic acid 4-benzylcarbamoyloxy-cyclohexylmethyl ester]",> 50 µM,46.1 µM,
"O=C(OC1CCC(COC(=O)N2CCCC2)CC1)c1ccccn1 (stereo not drawn) [Example 30, pyridine-2-carboxylic acid 4-(pyrrolidine-1-carbonyloxymethyl)-cyclohexyl ester]",> 50 µM,> 50 µM,
"O=C(OC1CCC(COC(=O)N2CCCC2)CC1)c1ccncc1 (stereo not drawn) [Example 32, pyridine-4-carboxylic acid 4-(pyrrolidine-1-carbonyloxymethyl)-cyclohexyl ester]",34.8 µM,21.1 µM,
"O=C(Cc1ccccn1)OC1CCC(COC(=O)N2CCCC2)CC1 (stereo not drawn) [Example 33, pyrrolidine-1-carboxylic acid 4-(2-pyridin-2-yl-acetoxy)-cyclohexylmethyl ester]",> 50 µM,> 50 µM,
"O=C(OCC1CCC(OCc2ccccc2)CC1)N1CCCC1 (stereo not drawn) [Example 34, pyrrolidine-1-carboxylic acid 4-benzyloxy-cyclohexylmethyl ester]",27.1 µM,24.9 µM,
"O=C(OCC1CCC(OCc2ccccn2)CC1)N1CCCC1 (stereo not drawn) [Example 35, pyrrolidine-1-carboxylic acid 4-(pyridin-2-ylmethoxy)-cyclohexylmethyl ester]",50 µM,> 50 µM,
"O=C(OCC1CCC(OCc2cccc[n+]2[O-])CC1)N1CCCC1 (stereo not drawn) [Example 36, pyrrolidine-1-carboxylic acid 4-(1-oxy-pyridin-2-ylmethoxy)-cyclohexylmethyl ester]",> 50 µM,> 50 µM,
"O=C(OCC1CCC(NCc2ccccc2)CC1)N1CCCC1 (stereo not drawn) [Example 37, pyrrolidine-1-carboxylic acid 4-benzylaminocyclohexylmethyl ester HCl salt]",> 50 µM,46.1 µM,
"COc1ccc(CNC2CCC(COC(=O)N3CCCC3)CC2)cc1 (stereo not drawn) [Example 38, pyrrolidine-1-carboxylic acid 4-(4-methoxy-benzylamino)-cyclohexylmethyl ester HCl salt]",> 50 µM,35.8 µM,
"COc1ccc(CCNC2CCC(COC(=O)N3CCCC3)CC2)cc1 (stereo not drawn) [Example 39, pyrrolidine-1-carboxylic acid 4-[2-(4-methoxy-phenyl)-ethylamino]-cyclohexylmethyl ester HCl salt]",> 50 µM,> 50 µM,
"O=C(NC1CCC(COC(=O)N2CCCC2)CC1)OCc1cccnc1 (stereo not drawn) [Example 41, pyrrolidine-1-carboxylic acid 4-(pyridin-3-ylmethoxycarbonylamino)-cyclohexylmethyl ester]",> 50 µM,50 µM,
"O=C(NC1CCC(COC(=O)N2CCCC2)CC1)OCc1cccc[n+]1[O-] (stereo not drawn) [Example 51, pyrrolidine-1-carboxylic acid 4-(1-oxy-pyridin-2-ylmethoxycarbonylamino)-cyclohexylmethyl ester]",> 50 µM,50 µM,
"O=C(NC1CCC(COC(=O)N2CCCC2)CC1)OCc1ccc[n+]([O-])c1 (stereo not drawn) [Example 52, pyrrolidine-1-carboxylic acid 4-(1-oxy-pyridin-3-ylmethoxycarbonylamino)-cyclohexylmethyl ester]",> 50 µM,22.3 µM,
"O=C(NC1CCC(COC(=O)N2CCCC2)CC1)OCc1cc[n+]([O-])cc1 (stereo not drawn) [Example 53, pyrrolidine-1-carboxylic acid 4-(1-oxy-pyridin-4-ylmethoxycarbonylamino)-cyclohexylmethyl ester]",> 50 µM,33.9 µM,
"O=C(NCc1ccncc1)OC1CCC(CNC(=O)C2CCCC2)CC1 (stereo not drawn) [Example 55, pyridin-4-ylmethyl-carbamic acid 4-[(cyclopentanecarbonyl-amino)-methyl]-cyclohexyl ester]",> 50 µM,25.6 µM,

# Now those with a lower IC50 [1], led by results:
IC50 [1],IC50 [3],SMILES,inhibition in vivo [2]
5.8 µM,> 50 µM,"O=C(NCc1cccnc1)OC1CCC(COC(=O)N2CCCC2)CC1 (stereo not drawn) [Example 8, pyrrolidine-1-carboxylic acid 4-(pyridin-3-ylmethylcarbamoyloxy)-cyclohexylmethyl ester]",11%
19.4 µM,19.9 µM,"Cc1cccc(CNC(=O)OC2CCC(COC(=O)N3CCCC3)CC2)n1 (stereo not drawn) [Example 15, pyrrolidine-1-carboxylic acid 4-(6-methyl-pyridin-2-ylmethylcarbamoyloxy)-cyclohexylmethyl ester]",29.2%
21.7 µM,35.8 µM,"Cc1cccc(NC(=O)OC2CCC(COC(=O)N3CCCC3)CC2)n1 (stereo not drawn) [Example 22, pyrrolidine-1-carboxylic acid 4-(6-methyl-pyridin-2-ylcarbamoyloxy)-cyclohexylmethyl ester]",
15.5 µM,24.9 µM,"O=C(Nc1cccc[n+]1[O-])OC1CCC(COC(=O)N2CCCC2)CC1 (stereo not drawn) [Example 25, pyrrolidine-1-carboxylic acid 4-(1-oxy-pyridin-2-ylcarbamoyloxy)-cyclohexylmethyl ester]",
21.1 µM,> 50 µM,"O=C(OC1CCC(COC(=O)N2CCCC2)CC1)c1cccnc1 (stereo not drawn) [Example 31, pyridine-3-carboxylic acid 4-(pyrrolidine-1-carbonyloxymethyl)-cyclohexyl ester]",
12 µM,10.5 µM,"O=C(NC1CCC(COC(=O)N2CCCC2)CC1)OCc1ccnc(Cl)c1 (stereo not drawn) [Example 43, pyrrolidine-1-carboxylic acid 4-(2-chloro-pyridin-4-ylmethoxycarbonylamino)-cyclohexylmethyl ester]",
16.8 µM,21.7 µM,"O=C(NC1CCC(COC(=O)N2CCCC2)CC1)OCc1cccnc1Cl (stereo not drawn) [Example 44, pyrrolidine-1-carboxylic acid 4-(2-chloro-pyridin-3-ylmethoxycarbonylamino)-cyclohexylmethyl ester]",
7.5 µM,9.9 µM,"O=C(NC1CCC(COC(=O)N2CCCC2)CC1)OCc1cc(Cl)nc(Cl)c1 (stereo not drawn) [Example 45, pyrrolidine-1-carboxylic acid 4-(2,6-dichloro-pyridin-4-ylmethoxycarbonylamino)-cyclohexylmethyl ester]",
26.3 µM,32 µM,"O=C(NC1CCC(COC(=O)N2CCCC2)CC1)OCc1cccc(Cl)n1 (stereo not drawn) [Example 46, pyrrolidine-1-carboxylic acid 4-(6-chloro-pyridin-2-ylmethoxycarbonylamino)-cyclohexylmethyl ester]",
21.1 µM,13.1 µM,"O=C(NC1CCC(COC(=O)N2CCCC2)CC1)OCc1ccc(Cl)nc1 (stereo not drawn) [Example 47, pyrrolidine-1-carboxylic acid 4-(6-chloro-pyridin-3-ylmethoxycarbonylamino)-cyclohexylmethyl ester]",
10.2 µM,13.5 µM,"Cc1ncccc1COC(=O)NC1CCC(COC(=O)N2CCCC2)CC1 (stereo not drawn) [Example 48, pyrrolidine-1-carboxylic acid 4-(2-methyl-pyridin-3-ylmethoxycarbonylamino)-cyclohexylmethyl ester]",
10.2 µM,12 µM,"Cc1cccc(COC(=O)NC2CCC(COC(=O)N3CCCC3)CC2)n1 (stereo not drawn) [Example 49, pyrrolidine-1-carboxylic acid 4-(6-methyl-pyridin-2-ylmethoxycarbonylamino)-cyclohexylmethyl ester]",
14.2 µM,5.7 µM,"O=C(NC1CCC(COC(=O)N2CCCC2)CC1)OCc1ccc(C(F)(F)F)nc1 (stereo not drawn) [Example 50, pyrrolidine-1-carboxylic acid 4-(6-trifluoromethyl-pyridin-3-ylmethoxycarbonylamino)-cyclohexylmethyl ester]",

# Source: patent publication US8822463B2, “Methylcyclohexane derivatives and uses thereof” (Sk Biopharmaceuticals Co., Ltd., priority 2010, dated 2014)
